# Target: human SGLT1 (Homo sapiens (Human), UniProt P13866)
# Assay: SGLT1 inhibitory activity: 14C-AMG uptake into CHO-K1 cell line stably expressing human SGLT1
# Assay type: cell-based
# Details: 14C-AMG uptake, CHO-K1 cells expressing human SGLT1
# Summary of the method: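 CHO-K1 cells stably expressing human SGLT1 were pre-incubated 20 min in Na(−) buffer (pH 7.4). Test compound in Na(+) buffer with BSA was added with ¹⁴C-AMG (8 kBq) plus unlabelled AMG (2 mM in the added solution) for 1 h at 37 °C.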
# Chain of human SGLT1 (P13866 whole entry): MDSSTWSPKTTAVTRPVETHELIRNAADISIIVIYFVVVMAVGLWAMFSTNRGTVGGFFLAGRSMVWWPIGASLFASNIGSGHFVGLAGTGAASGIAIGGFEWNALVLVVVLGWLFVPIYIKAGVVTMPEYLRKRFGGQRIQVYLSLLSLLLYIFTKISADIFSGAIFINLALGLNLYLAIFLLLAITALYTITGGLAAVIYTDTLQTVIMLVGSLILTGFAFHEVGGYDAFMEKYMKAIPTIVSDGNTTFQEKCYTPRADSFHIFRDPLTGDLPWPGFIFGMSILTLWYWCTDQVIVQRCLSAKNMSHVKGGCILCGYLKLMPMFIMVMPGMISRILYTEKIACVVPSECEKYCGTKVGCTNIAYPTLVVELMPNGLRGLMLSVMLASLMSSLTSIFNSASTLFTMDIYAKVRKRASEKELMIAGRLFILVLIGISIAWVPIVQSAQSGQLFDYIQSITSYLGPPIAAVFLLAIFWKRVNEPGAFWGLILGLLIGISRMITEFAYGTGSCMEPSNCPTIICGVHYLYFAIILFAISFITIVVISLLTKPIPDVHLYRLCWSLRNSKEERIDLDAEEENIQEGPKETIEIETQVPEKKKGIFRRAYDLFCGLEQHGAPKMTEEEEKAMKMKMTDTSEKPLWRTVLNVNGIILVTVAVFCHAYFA
row,IC50 [nM],SMILES
1,2.4,CCCc1cccc(-c2cc(NC(=O)[C@@H]3CNC(=O)C3)nn2-c2ccccc2Cl)c1 [Example 101]
2,31,O=C1C[C@H](C(=O)Nc2cc(-c3cccc(C4CC4)c3)n(-c3ccccc3)n2)CN1 [Example 93]
3,22,CCCc1cc(-c2cc(NC(=O)[C@H]3CNC(=O)C3)nn2-c2ccccc2)ccc1F [Example 50]
4,3.8,CCC(C)(C)c1cccc(-c2cc(NC(=O)[C@@H]3CNC(=O)C3)nn2-c2ccccc2)c1 [Example 53]
5,4.7,CCCc1cccc(-c2cc(NC(=O)[C@H]3CNC(=O)C3)nn2-c2ccccc2)c1 [Example 22]
6,420,O=C1C[C@@H](C(=O)Nc2cc(C3=CCCCC3)n(-c3ccccc3)n2)CN1 [Example 47]
7,1.7,CCC(F)(F)c1cccc(-c2cc(NC(=O)[C@H]3CNC(=O)C3)nn2-c2cccc(Cl)c2)c1 [Example 139]
8,3.5,CCCc1cccc(-c2cc(NC(=O)[C@H]3CNC(=O)C3)nn2-c2ccc(C)cc2)c1 [Example 48]
9,0.9,CC(C)(C)c1cccc(-c2cc(NC(=O)[C@H]3CNC(=O)C3)nn2-c2ccccc2Cl)c1 [Example 132]
10,73,CCCc1cccc(-c2cc(NC(=O)[C@@H]3CNC(=O)C3)nn2Cc2ccccc2)c1 [Example 99]
11,1.3,CCC(F)(F)c1cccc(-c2cc(NC(=O)[C@H]3CNC(=O)[C@@H]3C)nn2-c2ccccc2Cl)c1 [Example 208]
12,11,CCCc1cccc(-c2cc(NC(=O)[C@H]3CNC(=O)C3)nn2-c2ccc(OC)cc2)c1 [Example 121]
13,11,CCc1cccc(-c2cc(NC(=O)[C@H]3CNC(=O)C3)nn2-c2ccccc2)c1 [Example 43]
14,13,CCC(F)(F)c1cccc(-c2cc(NC(=O)[C@H]3CNC(=O)C3)nn2-c2ccc(F)cc2)c1 [Example 173]
15,19,"CCC(F)(F)c1cccc(-c2cc(NC(=O)C3CCC(=O)NC3)nn2-c2ccccc2)c1 (single isomer, unassigned) [Example 151]"
16,4,"C[C@H]1C(=O)NC[C@@H]1C(=O)Nc1cc(-c2cccc(OC(F)(F)F)c2)n(-c2ccccc2)n1 [Example 1, (3R,4R)-4-methyl-5-oxopyrrolidine-3-carboxylic acid[1-phenyl-5-(3-trifluoromethoxyphenyl)-1H-pyrazol-3-yl]amide]"
17,42,O=C1C[C@@H](C(=O)Nc2cc(-c3cccc(OC(F)(F)F)c3)n(C3CCOCC3)n2)CN1 [Example 187]
18,2.1,Cc1ccccc1-n1nc(NC(=O)[C@H]2CNC(=O)[C@@H]2C)cc1-c1cccc(OCC(F)(F)F)c1 [Example 227]
19,17,O=C1C[C@@H](C(=O)Nc2cc(-c3cccc(OCC(F)(F)F)c3)n(-c3ccc(F)cc3)n2)CN1 [Example 211]
20,33,"CCCc1cccc(-c2cc(NC(=O)C3COC(=O)C3)nn2-c2ccccc2)c1 (racemic) [Example 7, 5-oxotetrahydrofuran-3-carboxylic acid[1-phenyl-5-(3-propylphenyl)-1H-pyrazol-3-yl]amide]"

# Same assay, conditions: 14C-AMG uptake, CHO-K1 cells stably expressing human SGLT1
row,IC50 [nM],SMILES
1,4.7,CCCc1cccc(-c2cc(NC(=O)[C@@H]3CNC(=O)C3)nn2-c2cc(C)cc(C)c2)c1 [Example 322]
2,16,CC(C)(OCc1cc(F)cc(-c2cc(NC(=O)[C@H]3CNC(=O)N3)nn2-c2ccc(Cl)cc2)c1)C(F)(F)F [Example 603]
3,10,CCCOc1cccc(-n2nc(NC(=O)[C@@H]3CNC(=O)C3)cc2-c2cccc(OC(F)(F)F)c2)c1 [Example 444]
4,21.5,O=C1C[C@H](C(=O)Nc2cc(-c3cccc(COCCC(F)(F)F)c3)n(-c3ccccc3)n2)CN1 [Example 281]
5,3,CCCc1cccc(-c2cc(NC(=O)C3CCS(=O)(=O)C3)nn2-c2ccccc2)c1 (racemic) [Example 320]
6,60,CCCc1cccc(-c2cc(NC(=O)[C@@H]3CNC(=O)C3)nn2-c2cccc(O)c2)c1 [Example 341]
7,4.8,CCCc1cccc(-c2cc(NC(=O)[C@@H]3CNC(=O)C3)nn2-c2cccc(COC(C)C)c2)c1 [Example 459]
8,66,CC(C)(OCc1cc(Cl)cc(-c2cc(NC(=O)[C@H]3CNC(=O)N3)nn2-c2ccccc2)c1)C(F)(F)F [Example 594]
9,17,CCCc1cccc(-c2cc(NC(=O)[C@@H]3CNC(=O)C3)nn2-c2ccc(C(F)(F)F)cc2)c1 [Example 402]
10,3.4,"C[C@@H](OCc1cc(F)cc(-c2cc(NC(=O)[C@@H]3CNC(=O)C3)nn2-c2ccccc2)c1)C(F)(F)F [Example 235, (S)-5-oxopyrrolidine-3-carboxylic acid{5-[3-fluoro-5-((R)-2,2,2-trifluoro-1-methylethoxymethyl)phenyl]-1-phenyl-1H-pyrazol-3-yl}amide]"
11,3.8,CC(C)Oc1ccc(F)c(-n2nc(NC(=O)[C@@H]3CNC(=O)C3)cc2-c2cccc(OC(F)(F)F)c2)c1 [Example 517]
12,24,"O=C1CCC(C(=O)Nc2cc(-c3cccc(COCC(F)(F)F)c3)n(-c3ccccc3)n2)CN1 (single isomer, unassigned) [Example 560]"
13,76,CCCc1cccc(-c2cc(NC(=O)[C@@H]3CNC(=O)O3)nn2-c2ccccc2)c1 [Example 257]
14,12,CC(C)Oc1cccc(-n2nc(NC(=O)[C@@H]3CNC(=O)C3)cc2-c2cccc(COCC(F)(F)F)c2)c1F [Example 482]
15,18,CCOc1cc(F)cc(-n2nc(NC(=O)[C@@H]3CNC(=O)C3)cc2-c2cccc(OC(F)(F)F)c2)c1 [Example 525]
16,40,O=C1C[C@H](C(=O)Nc2cc(-c3cc(Cl)cc(COCC(F)(F)F)c3)n(-c3cccc(F)c3)n2)CN1 [Example 588]
17,45,C[C@@H]1C(=O)NC[C@H]1C(=O)Nc1cc(-c2cccc(CO[C@H](C)C(F)(F)F)c2)n(-c2ccccc2)n1 [Example 564]
18,15,O=C1C[C@H](C(=O)Nc2cc(-c3cccc(COCC(F)(F)F)c3)n(-c3ccccc3F)n2)CN1 [Example 471]
19,21,COc1cccc(-n2nc(NC(=O)[C@@H]3CNC(=O)C3)cc2-c2cccc(OC(F)(F)F)c2)c1F [Example 476]

row,IC50 [nM],SMILES
1,28,CC(C)CCOc1cccc(-c2cc(NC(=O)[C@@H]3CNC(=O)C3)nn2-c2ccccc2)c1 [Example 319]
2,38,O=C1C[C@H](C(=O)Nc2cc(-c3cccc(COCC(F)(F)F)c3)n(-c3cccc(OC4COC4)c3)n2)CN1 [Example 509]
3,79,O=C1NC[C@H](C(=O)Nc2cc(-c3cccc(COCCC(F)(F)F)c3)n(-c3ccccc3)n2)N1 [Example 354]
4,35,O=C1NC[C@H](C(=O)Nc2cc(-c3cc(F)cc(COCC(F)(F)F)c3)n(-c3ccc(Cl)cc3)n2)N1 [Example 596]
5,5.1,C[C@@H](OCc1cc(F)cc(-c2cc(NC(=O)C3CCC(=O)NC3)nn2-c2ccc(Cl)cc2)c1)C(F)(F)F (stereo partly drawn) [Example 572]
6,12.5,CCCc1cccc(-c2cc(NC(=O)[C@@H]3CNC(=O)C3)nn2-c2cccc(OCC(F)(F)F)c2)c1 [Example 387]
7,9.1,C/C=C/c1cccc(-n2nc(NC(=O)[C@@H]3CNC(=O)C3)cc2-c2cccc(CCC)c2)c1 [Example 494]
8,6,CCCc1cccc(-c2cc(NC(=O)[C@@H]3CNC(=O)C3)nn2-c2cccc(Cl)c2)c1 [Example 262]
9,63,CC(C)Oc1cccc(-c2cc(NC(=O)[C@@H]3CNC(=O)C3)nn2-c2ccccc2)c1 [Example 301]
10,1.4,CC(C)Oc1ccc(F)c(-n2nc(NC(=O)[C@@H]3CNC(=O)C3)cc2-c2cccc(COCC(F)(F)F)c2)c1 [Example 461]
11,5.7,CCCc1cccc(-c2cc(NC(=O)[C@@H]3CNC(=O)C3)nn2-c2cccc(C(C)C)c2)c1 [Example 392]
12,1.7,CCCOc1cccc(-n2nc(NC(=O)[C@@H]3CNC(=O)C3)cc2-c2cccc(CO[C@H](C)C(F)(F)F)c2)c1 [Example 453]
13,32,CC[C@H](C)OCc1cccc(-c2cc(NC(=O)[C@@H]3CNC(=O)C3)nn2-c2ccccc2)c1 [Example 351]
14,29,CCCc1cccc(-c2cc(NC(=O)[C@H]3CNC(=O)N3C(C)C)nn2-c2ccccc2)c1 [Example 328]
15,15,CCCc1cccc(-c2cc(NC(=O)[C@@H]3CNC(=O)C3)nn2-c2cccc(C(C)(C)C)c2)c1 [Example 394]
16,5.15,C[C@@H](OCc1cc(F)cc(-c2cc(NC(=O)[C@@H]3CNC(=O)C3)nn2-c2cccc(F)c2)c1)C(F)(F)F [Example 521]
17,9.4,CCCc1cccc(-c2cc(NC(=O)[C@@H]3CNC(=O)C3)nn2-c2ccc(F)c(OCC)c2)c1 [Example 390]
18,6.75,CCCOc1cccc(-n2nc(NC(=O)[C@@H]3CNC(=O)C3)cc2-c2cccc(CCC)c2)c1 [Example 380]

# Same assay, conditions: CHO-K1, at 0.03 uM
row,inhibition at 0.03 µM [%],SMILES
1,7,O=C1NCC(C(=O)Nc2cc(-c3cccc(OC(F)(F)F)c3)n(-c3ccccc3)n2)CN1 [Example 252]
2,3,C[C@H]1C(=O)NC[C@@H]1C(=O)Nc1cc(-c2cccc(OC(F)(F)F)c2)n(-c2ccc(F)cc2F)n1 [Example 184]

# Same assay, conditions: CHO-K1, at 0.1 uM
row,inhibition at 0.1 µM [%],SMILES
1,40,CCC(F)(F)c1cccc(-c2cc(NC(=O)[C@H]3CNC(=O)C3)nn2CCOC(C)C)c1 [Example 175]
2,45,CCCc1cccc(-c2cc(NC(=O)[C@@H]3CNC(=O)C3)nn2CCc2ccccc2)c1 [Example 108]
3,19,CCCc1cccc(-c2cc(NC(=O)[C@@H]3CNC(=O)CN3)nn2-c2ccccc2)c1 [Example 500]
4,48,CCN1C(=O)NC[C@H]1C(=O)Nc1cc(-c2cccc(OC(F)(F)F)c2)n(-c2ccccc2)n1 [Example 296]
5,40,CS(=O)(=O)c1cccc(-n2nc(NC(=O)[C@@H]3CNC(=O)C3)cc2-c2cccc(COCC(F)(F)F)c2)c1 [Example 530]
6,20,CC1C(=O)NC(O)C1C(=O)Nc1cc(-c2cccc(OC(F)(F)F)c2)n(-c2ccc(F)cc2)n1 (racemic) [Example 259]

# Same assay, conditions: CHO-K1, at 0.3 uM
row,inhibition at 0.3 µM [%],SMILES
1,40,O=C1C[C@@H](C(=O)Nc2cc(-c3cccc(OC(F)(F)F)c3)n(CC3CCOCC3)n2)CN1 [Example 199]
